Data on two molecules can be found in publication PMC7849180 (Frontiers in Pharmacology, 2020).

The test system of data set [1] is ERK. Put plainly: Phosphorylation of Elk-1 by ERK. The class given is biochemical. The text has this: Suzhou Zelgen Biopharmaceuticals Co., Ltd. Jaktinib Hydrochloride Tablets Chemical Drug Class 1 New Drug has been completed. The ongoing toxicity tests include a long-term 39-week toxicity test in Beagle dogs by oral administration, a reproductive toxicity test in rats during the teratogenic sensitive period, and a reproductive toxicity test in rabbits during the teratogenic sensitive period.
Preclinical Pharmacodynamic Study
Study on the in vitro Pharmacodynamic Effects of ZG0163 at the […]
In this study, the effects of ZG0163 was similar to those of positive control compounds, ZG0164 and ZG0178.
Study on the in vitro Pharmacodynamic Effects of ZG0163 at the Cellular Level (Ba/F3-EpoR-JAK2V617F cells)
JAK2V617F cell line, the compound ZG0163 was able to induce apoptosis of pathogenic cells and eliminate abnormal cell proliferation by inhibiting the JAK-STAT signaling pathway, thus achieving treatment efficacy in myeloproliferative neoplasms. […]
cell line, manifested as significant inhibition of phosphorylation of JAK2 and its downstream signaling proteins ERK and STAT5. The effects of ZG0163 was similar to those of positive control compounds, ZG0164 and ZG0178.
EpoR-JAK2V617F, which was similar to those of positive control compounds, ZG0164

The nature of data set [2]: Estimate of human equivalent and starting dose from animal NOAEL. The following applies: for maximum safe starting dose in human: safety factor 10; for MRSD: safety factor 10, 60 kg. The procedure: The human equivalent doses (HED) for the above tests were 9 mg/kg and 5 mg/kg, respectively (Table 9). According to the "Guidance for Estimating the Maximum Recommended Dose in Initial Clinical Trials for Therapeutics in Adult Healthy Volunteers" issued by CFDA and a safety factor of 10, the maximum safe starting doses for the first dose in human were calculated as about 50 mg and 30 mg, respectively.
The single starting dose of this study was set to 25 mg, while the highest dose was set to 400 mg. The 400 mg dose would not be further increased even it was […]
Animal Test Anima Dosage HNSTD HED MRSD […]
Toxicity Test 61.0/oral gavage in Beagle Dogs 196.2/oral gavage a The safety factor was 10, while the human body weight was calculated as 60 kg. […]

Data set [3] is described as follows: PK, single intragastric dose. The class given is in vivo, beagles. How it is done:
Overall 2.0 (1.0-2.0) 0.593 ± 0.194 2.96 ± 1.07 3.03 ± 1.09 3.99 ± 0.40 2.24 ± 0.88 30.5 Male 2.0 (2.0-8.0) 0.765 ± 0.105 5.76 ± 3.51 5.82 ± 3.48 5.28 ± 2.11 2.31 ± 0.89 […] 61 Male 8.0 (4.0-12.0) 1.49 ± 0.33 16.6 ± 8.2 16.7 ± 8.2 7.73 ± 2.48 3.72 ± 0.79 Female 2.0 (2.0-6.0) 1.73 ± 0.75 17.4 ± 8.9 17.4 ± 8.9 6.33 ± 1.62 2.54 ± 1.06 […] (multiple […] Pharmacokinetics of single dose intravenous administration in beagles. After intravenous administration of 12.2 mg ZG0128 (the average weight of the beagles was about 10 kg, so the dose given equals to 1.22 mg/kg ZG0128), ZG0163 […] 3.49 L/kg. […] Pharmacokinetics of single-dose intragastric administration. […] mg/ZG0128). […] The plasma […] There were large individual differences in plasma exposure AUC0-t in dogs. The pharmacokinetic differences between genders could not be determined. […] increased proportionally with the increasing dosage. The average Tmax of metabolite ZG0245 was 2.0 h.

For data set [4], the system named is primary cells harboring the JAK2V617F mutation in patients with polycythemia vera. As to the kind of experiment: Colony forming of erythroid hematopoietic cells of polycythemia vera patients. The class given is cell-based, human. The following applies: 1 μM. The text has this:
Suzhou Zelgen Biopharmaceuticals Co., Ltd. Jaktinib Hydrochloride Tablets Chemical Drug Class 1 New Drug and ZG0178. However, the inhibitory effect on the activity of Ba/F3-EpoR cell line […]
respectively. Obviously, this selective inhibition is associated with the aberrant expression of JAK2 in Ba/F3-EpoR-JAK2V617F mutant cells, and the degree of ZG0163 inhibition on JAK-STAT signaling pathway in this cell line. […]
cells, and the effects of ZG0163 was similar to those of positive control compounds, […]
In Vitro Inhibitory Effect of ZG0128 on Cell Lines Transfected with Oncogenes and Primary Blood Cells in Patients with Polycythemia Vera
In vitro cell culture assay was used to determine whether compound ZG0128 […]
cell line harboring a JAK2V617F mutation, and 8 HCD-57 cell lines stably transfected with oncogenic mutations JAK2V617F, MPLW515L, KITD816V, NPM-ALK, FLT3-ITD, FLT3D835H, FLT3D835Y and KRasG12V, respectively. In addition, study the inhibitory effects of compound ZG0128 on the growth of hematopoietic progenitor cells in patients with polycythemia vera.
9 cell lines were similar to those of positive control drug ZG0192. At the sub-micromolar concentration, both compounds ZG0128 and ZG0192 were able to […]
the growth of HCD-57 cells transfected with oncogenic mutations JAK2V617F, […]
spectrum inhibitory effect on tyrosine kinases. […]

As to Jaktinib, the “effect on phosphorylation of Elk-1 by ERK” value in data set [1] was “significantly inhibited”. The “human equivalent dose (HED)” value in data set [2] (from 26-week rat NOAEL) is reported as 5 mg/kg; in data set [2] (from 28-day Beagle dog NOAEL) it was 9 mg/kg. The “maximum safe starting dose in human” value in data set [2] (from dog NOAEL) is recorded as “about 50 mg”; in data set [2] (from rat NOAEL), roughly 30 mg. In addition, the MRSD in data set [2] (from dog NOAEL) was 54 mg/day; in data set [2] (from rat NOAEL), 30 mg/day. In addition, the “AUC0-t (mean)” value in data set [3] (61 mg ZG0128) came out at 459 ng·h/mL; in data set [3] (122 mg ZG0128), 948 ng·h/mL; in data set [3] (244 mg ZG0128), 1728 ng·h/mL. Moreover, the Cmax (usually the peak of the concentration-time curve) in data set [3] (61 mg ZG0128) is given as 156 ng/mL; in data set [3] (122 mg ZG0128), 266 ng/mL; in data set [3] (244 mg ZG0128), 444 ng/mL. Moreover, the absolute bioavailability in data set [3] (61 mg, by AUC0-t) turned out to be 27.2%. The “average Tmax” value in data set [3] (1, 2 and 4 tablets (61, 122, 244 mg ZG0128)) amounted to 2.0 h. Also, in data set [3] (61–244 mg), the “average t1/2, range over doses” value was in the range of 1.31 to 2.49 h. Moreover, the “exposure as % of the medium dosage group (122 mg/animal)” value in data set [3] (intragastric 122 mg ZG0128) amounted to 93.0%. Moreover, the Tmax (commonly the time at which the peak concentration occurs) in data set [3] (intragastric 122 mg ZG0128 (compared with medium dosage tablet group)) is given as 1.50 h.

For `Cl.Cl.O.[2H]C1([2H])COCC([2H])([2H])N1c1ccc(Nc2nccc(-c3ccc(C(=O)NCC#N)cc3)n2)cc1` [ZG0128, Jaktinib Dihydrochloride Monohydrate], the “colony forming of erythroid hematopoietic cells” value in data set [4] is given as “almost completely inhibited”.
